Results from US8084479B2, “Thiazole compounds and methods of use” (Amgen Inc., priority 2006, dated 2011).

molecular target: PKBα (Homo sapiens, UniProt P31749); assay: PKB kinase assay (P33-labeled ATP, peptide substrate, filter plate); format: biochemical; conditions: PKBα enzyme (full length or kinase domain with pleckstrin domain deleted)
Excerpt: The kinase assay for evaluating PKB activity comprises active PKB enzymes, a PKB specific substrate, and P^33-labeled ATP. […] The phosphorylated substrate was captured by a phosphocellulose membrane filter plate (MLLIPORE) and measured by a Wallac Microbeta liquid scintillation counter (Perkin Elmer).

Sequence of PKBα (P31749 118-480 limits assumed): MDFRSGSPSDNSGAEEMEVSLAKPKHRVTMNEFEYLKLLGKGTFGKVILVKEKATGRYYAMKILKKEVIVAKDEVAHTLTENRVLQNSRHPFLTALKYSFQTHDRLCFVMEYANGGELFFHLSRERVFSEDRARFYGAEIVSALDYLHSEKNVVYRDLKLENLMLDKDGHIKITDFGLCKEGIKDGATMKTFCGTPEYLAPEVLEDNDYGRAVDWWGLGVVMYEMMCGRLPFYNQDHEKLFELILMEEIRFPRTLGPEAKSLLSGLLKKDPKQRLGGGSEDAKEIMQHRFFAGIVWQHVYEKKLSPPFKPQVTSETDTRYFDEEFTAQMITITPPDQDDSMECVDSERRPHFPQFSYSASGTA

Row | Structure (SMILES) | IC50
1 | N[C@H](CNc1ncc(-c2ccc3cnccc3c2)s1)Cc1cccc(Cl)c1 [Example 66, N—((S)-2-amino-3-(3-chlorophenyl)propyl)-5-(isoquinolin-6-yl)thiazol-2-amine] | < 0.05 µM
2 | N[C@H](CNc1ncc(-c2ccc3c(c2)CC(=O)N3)s1)Cc1ccc(F)c(F)c1 [Example 126, 5-(2-((S)-2-Amino-3-(3,4-difluorophenyl)propylamino)thiazol-5-yl)indolin-2-one] | 0.05 to 1 µM
3 | N[C@H](CNc1nc(-c2ccco2)c(-c2ccc3cnccc3c2)s1)Cc1ccc(C(F)(F)F)cc1 [Example 8, N—((S)-2-amino-3-(4-(trifluoromethyl)phenyl)propyl)-4-(furan-2-yl)-5-(isoquinolin-6-yl)thiazol-2-amine] | 0.05 to 1 µM
4 | N[C@H](CNc1ncc(-c2ccc3c(c2)/C(=C/c2ccco2)C(=O)N3)s1)Cc1c[nH]c2ccccc12 (stereo in doubt) [Example 72, (E)- and (Z)-5-(2-((S)-2-amino-3-(1H-indol-3-yl)propylamino)thiazol-5-yl)-3-(furan-2-ylmethylene)indolin-2-one ditrifluoroacetates] | 0.05 to 1 µM
5 | N[C@H](CNc1nc(-c2cccc(F)c2F)c(-c2ccc3cnccc3c2)s1)Cc1ccc(C(F)(F)F)cc1 [Example 100, N—((S)-2-Amino-3-(4-(trifluoromethyl)phenyl)propyl)-4-(2,3-difluorophenyl)-5-(isoquinolin-6-yl)thiazol-2-amine] | 0.05 to 1 µM
6 | COCOC(c1ccc(C(F)(F)F)cc1)C(N)CNc1ncc(-c2ccc3c(c2)CC(=O)N3)s1 (centres unmarked) [Example 244] | 1 to 10 µM
7 | N[C@H](CNc1nc(Br)c(-c2nc3ccncc3s2)s1)Cc1ccc(C(F)(F)F)cc1 [Example 111, N—((S)-2-Amino-3-(4-(trifluoromethyl)phenyl)propyl)-4-bromo-5-(thiazolo[5,4-c]pyridin-2-yl)thiazol-2-amine] | 0.05 to 1 µM
8 | N[C@H](CNc1ncc(-c2ccc3[nH]c(=O)oc3c2)s1)Cc1ccc(Cl)c(Cl)c1 [Example 115, 6-(2-((S)-2-Amino-3-(3,4-dichlorophenyl)propylamino)thiazol-5-yl)benzo[d]oxazol-2(3H)-one] | < 0.05 µM
9 | N[C@H](CNc1ncc(-c2ccc3[nH]c(=O)oc3c2)s1)[C@@H](CO)c1ccc(C(F)(F)F)cc1 [Example 160, 6-(2-((2S,3S)-2-amino-4-hydroxy-3-(4-(trifluoromethyl)phenyl)butylamino)thiazol-5-yl)benzo[d]oxazol-2(3H)-one] | < 0.05 µM
10 | N[C@H](CNc1ncc(-c2ccc3[nH]c(=O)oc3c2)s1)Cc1ccc(Cl)s1 [Example 213, 6-(2-((S)-2-amino-3-(5-chlorothiophen-2-yl)propylamino)thiazol-5-yl)benzo[d]oxazol-2(3H)-one] | 0.05 to 1 µM
11 | N[C@H](CNc1ncc(-c2ccc3[nH]c(=O)oc3c2)s1)Cc1ccc(F)c(F)c1 [Example 127, 6-(2-((S)-2-Amino-3-(3,4-difluorophenyl)propylamino)thiazol-5-yl)benzo[d]oxazol-2(3H)-one] | 0.05 to 1 µM
12 | COCc1nc(NC[C@@H](N)Cc2c[nH]c3ccccc23)sc1-c1nc2ccncc2s1 [Example 27, N—((S)-2-amino-3-(1H-indol-3-yl)propyl)-4-(methoxymethyl)-5-(thiazolo[5,4-c]pyridin-2-yl)thiazol-2-amine] | 0.05 to 1 µM
13 | COC[C@@H](c1ccc(C(F)(F)F)cc1)[C@H](N)CNc1ncc(-c2ccc3c(c2)CC(=O)N3)s1 [Example 241, 5-(2-((2S,3S)-2-amino-4-methoxy-3-(4-(trifluoromethyl)phenyl)butylamino)thiazol-5-yl)indolin-2-one] | < 0.05 µM
14 | N[C@H](CNc1ncc(-c2ccc3c(c2)CC(=O)N3)s1)Cc1ccc(C(F)(F)F)c(O)c1 [Example 209, 5-(2-((S)-2-amino-3-(3-hydroxy-4-(trifluoromethyl)phenyl)propylamino)thiazol-5-yl)indolin-2-one] | 0.05 to 1 µM
15 | N[C@H](CNc1ncc(-c2ccc3cnccc3c2)s1)Cc1ccc(Cl)s1 [Example 211, N—((S)-2-amino-3-(5-chlorothiophen-2-yl)propyl)-5-(isoquinolin-6-yl)thiazol-2-amine] | < 0.05 µM
16 | C[C@@H](c1ccc(C(F)(F)F)cc1)[C@H](N)CNc1ncc(-c2ccc3c(c2)C2(CC2)C(=O)N3)s1 [Example 200, 5′-(2-((2S,3S)-2-amino-3-(4-(trifluoromethyl)phenyl)butylamino)thiazol-5-yl)spiro[cyclopropane-1,3′-indol]-2′(1′H)-one] | 0.05 to 1 µM
17 | N[C@H](CNc1ncc(-c2nc3ccncc3s2)s1)Cc1cccc(C(F)(F)F)c1 [Example 31, N—((S)-2-amino-3-(3-(trifluoromethyl)phenyl)propyl)-5-(thiazolo[5,4-c]pyridin-2-yl)thiazol-2-amine] | 1 to 10 µM
18 | N[C@H](CNc1ncc(-c2ccc3c(c2)CC(=O)N3)s1)[C@@H](CO)c1ccc(C(F)(F)F)cc1 [Example 158, 5-(2-((2S,3S)-2-amino-4-hydroxy-3-(4-(trifluoromethyl)phenyl)butylamino)thiazol-5-yl)indolin-2-one] | < 0.05 µM
19 | COc1cc(C[C@H](N)CNc2ncc(-c3ccc4[nH]c(=O)n(C)c4c3)s2)cnc1C(F)(F)F [Example 175, 6-(2-((S)-2-amino-3-(5-methoxy-6-(trifluoromethyl)pyridin-3-yl)propylamino)thiazol-5-yl)-1-methyl-1H-benzo[d]imidazol-2(3H)-one] | < 0.05 µM

The remaining lines, values ahead:

Row | IC50 | Structure (SMILES)
20 | < 0.05 µM | N[C@H](CNc1ncc(-c2cc3c(cc2F)NC(=O)C3)s1)Cc1ccc(C(F)(F)F)cc1 [Example 214, 5-(2-((S)-2-amino-3-(4-(trifluoromethyl)phenyl)propylamino)thiazol-5-yl)-6-fluoroindolin-2-one]
21 | < 0.05 µM | CC(O)C#Cc1nc(NC[C@@H](N)Cc2ccc(C(F)(F)F)cc2)sc1-c1ccc2cnccc2c1 (stereo partly drawn) [Example 141, 4-(2-((S)-2-amino-3-(4-(trifluoromethyl)phenyl)propylamino)-5-(isoquinolin-6-yl)thiazol-4-yl)but-3-yn-2-ol]
22 | 0.05 to 1 µM | C[C@@H](c1ccc(C(F)(F)F)cc1)[C@H](N)CNc1ncc(-c2ccc3[nH]c(=O)n(C)c3c2)s1 [Example 93, 6-(2-((2S,3S)-2-amino-3-(4-(trifluoromethyl)phenyl)butylamino)thiazol-5-yl)-1-methyl-1H-benzo[d]imidazol-2(3H)-one]
23 | 0.05 to 1 µM | N[C@H](CNc1ncc(-c2ccc3cn[nH]c3c2)s1)Cc1ccc(C(F)(F)F)cc1 [Example 48, N—((S)-2-amino-3-(4-(trifluoromethyl)phenyl)propyl)-5-(1H-indazol-6-yl)thiazol-2-amine]
24 | 0.05 to 1 µM | CN(C)Cc1nc(NC[C@@H](N)Cc2ccc(C(F)(F)F)cc2)sc1-c1ccc2cnccc2c1 [Example 81, N—((S)-2-Amino-3-(4-(trifluoromethyl)phenyl)propyl)-4-((dimethylamino)methyl)-5-(isoquinolin-6-yl)thiazol-2-amine]
25 | 1 to 10 µM | Cn1c(=O)[nH]c2ccc(-c3sc(NC[C@@H](N)Cc4ccc(C(F)(F)F)cc4)nc3C(F)(F)CO)cc21 [Example 136, 6-(2-((S)-2-Amino-3-(4-(trifluoromethyl)phenyl)propylamino)-4-(1,1-difluoro-2-hydroxyethyl)thiazol-5-yl)-1-methyl-1H-benzo[d]imidazol-2(3H)-one]
26 | 1 to 10 µM | Cn1nc(N)c2ccc(-c3cnc(NC[C@@H](N)Cc4ccc(C(F)(F)F)cc4)s3)cc21 [Example 53, 6-(2-((S)-2-amino-3-(4-(trifluoromethyl)phenyl)propylamino)thiazol-5-yl)-1-methyl-1H-indazol-3-amine]
27 | 1 to 10 µM | Cn1ncc2ccc(-c3cnc(NC[C@@H](N)Cc4ccc(C(F)(F)F)cc4)s3)cc21 [Example 167, N—((S)-2-amino-3-(4-(trifluoromethyl)phenyl)propyl)-5-(1-methyl-1H-indazol-6-yl)thiazol-2-amine]
28 | 0.05 to 1 µM | COC(C)c1nc(NC[C@@H](N)Cc2ccc(C(F)(F)F)cc2)sc1-c1ccc2cnccc2c1 (stereo partly drawn) [Example 16, N—((S)-2-amino-3-(4-(trifluoromethyl)phenyl)propyl)-5-(isoquinolin-6-yl)-4-(1-methoxyethyl)thiazol-2-amine]
29 | 1 to 10 µM | Nc1n[nH]c2cc(-c3cnc(NC[C@@H](N)Cc4ccc(C(F)(F)F)cc4)s3)ccc12 [Example 52, 6-(2-((S)-2-amino-3-(4-(trifluoromethyl)phenyl)propylamino)thiazol-5-yl)-1H-indazol-3-amine]
30 | 1 to 10 µM | C[C@H](Nc1ncc(-c2ccc3c(c2)CC(=O)N3)s1)[C@@H](N)Cc1ccc(C(F)(F)F)cc1 [Example 234, 5-(2-((2S,3S)-3-amino-4-(4-(trifluoromethyl)phenyl)butan-2-ylamino)thiazol-5-yl)indolin-2-one]
31 | < 0.05 µM | N[C@H](CNc1ncc(-c2ccc3[nH]c(=O)sc3c2)s1)Cc1ccc(C(F)(F)F)cc1 [Example 43, 6-(2-((S)-2-amino-3-(4-(trifluoromethyl)phenyl)propylamino)thiazol-5-yl)benzo[d]thiazol-2(3H)-one]
32 | < 0.05 µM | CC#Cc1nc(NC[C@@H](N)Cc2ccc(C(F)(F)F)cc2)sc1-c1ccc2cnccc2c1 [Example 143, N—((S)-2-amino-3-(4-(trifluoromethyl)phenyl)propyl)-5-(isoquinolin-6-yl)-4-(prop-1-ynyl)thiazol-2-amine]
33 | < 0.05 µM | Cc1n[nH]c2ccc(-c3sc(NC[C@@H](N)Cc4ccc(C(F)(F)F)cc4)nc3CO)cc12 [Example 11, (2-((S)-2-amino-3-(4-(trifluoromethyl)phenyl)propylamino)-5-(3-methyl-1H-indazol-5-yl)thiazol-4-yl)methanol]
34 | 0.05 to 1 µM | Nc1n[nH]c2ccc(-c3cnc(NC[C@@H](N)Cc4ccc(C(F)(F)F)cc4)s3)cc12 [Example 50, 5-(2-((S)-2-amino-3-(4-(trifluoromethyl)phenyl)propylamino)thiazol-5-yl)-1H-indazol-3-amine]
35 | < 0.05 µM | N[C@H](CNc1nc(CO)c(-c2ccc3cnccc3c2)s1)Cc1ccc(C(F)(F)F)cc1 [Example 10, (2-((S)-2-amino-3-(4-(trifluoromethyl)phenyl)propylamino)-5-(isoquinolin-6-yl)thiazol-4-yl)methanol]
